Laboratory results published in patent publication US5608143A, “External regulation of gene expression” (E. I. Du Pont de Nemours and Company, priority 1994, dated 1997).

How the values were obtained:
[1] = tested on: 2-1 gene (In 2-1 mRNA); assay: RNA slot blot / Northern analysis of 2-1 mRNA in roots of chemically treated corn; assay type: in vivo, corn (Missouri 17); set-up: In2-1 induction level: key to the marks not given beside the values
Protocol: Missouri 17 corn seeds were surface sterilized by soaking them in a solution of 10% commercial bleach and 0.1% sodium dodecylsulfate (SDS) for 30 minutes. Seeds were then rinsed thoroughly in a buchner funnel with sterile distilled water and prepared for germination by placing them onto 5-6 layers of moist sterile paper towels in a 8"×10" glass baking tray. The tray was covered with aluminum foil and placed in the dark in a 30° C. incubator for 48-72 hours to allow the seeds to germinate. After germination, seedlings were grown hydroponically in an apparatus consisting of a sheet of 8 mesh stainless steel wire gauze suspended over the top of a 2 liter glass beaker filled with sterile half strength Hoagland's solution (referred to 0.5× Hoagland's) so that the roots extended through the mesh and into the media. The hydroponic apparatus was aerated by introducing humidified air into the bottom of the beaker with a gas diffusing stone commonly used in tropical fish aquariums. The apparatus was covered with a loose-fitting sheet of aluminum foil and placed in a reach-in growth chamber illuminated by both fluorescent and incandescent lamps at an intensity of 4400 lux. Seedlings were grown at 28° C., 75% relative humidity using a 16 hour day/8 hour night cycle. After two days, the foil was removed and plants were grown for an additional 5-6 days. Any 0.5× Hoagland's lost to evaporation was replenished every 2-3 days. […] Plants were then allowed to grow for six additional hours prior to harvest.
A nitrocellulose filter (Schlicher and Schull BA-85) was wetted by soaking it twice for 10 minutes in water, followed by a 10 minute soak in 1M ammonium acetate. The filter was then placed into a Slot Blot apparatus (Schleicher and Schuell, Inc., Keene, N.H. 03431, CAT #SRC072/0). […] Forty pl of denaturation buffer (30% formaldehyde, 100 mM sodium phosphate pH 6.8) were added to each sample and all samples were then incubated at 65° C. for 20-30 minutes and quick-cooled in an ice slurry for 5 minutes. Thirty μl of 4M ammonium acetate were added to each sample and the 150 μl samples were added to slots in the blotting cell with the aid of a 10-15 mm Hg vacuum. The filter was removed from the blotting cell, air dried and baked for 2 hours at 70° C. in vacuo.
The filter was cut into six pieces such that each piece had one slot cox.raining RNA from each of the three treatments described above. One of the filter pieces was incubated with 10 ml of prehybridization buffer (50% deienized formamide, 5× SSC, 5× Denhardt's, 100 μg/ml denatured calf thymus DNA, 20 μg/ml homopoly(A), 40 mM sodium phosphate pH 6.8 and 0.5% BSA) in a heat-sealable bag for 6 hours at 42° C. with occasional mixing. The filter piece was then hybridized with nick-translated pIn 2-1. This was performed by discarding the prehybridization solution from the bag and replacing it with 2.5 ml of hybridization buffer (50% deionized formamide, 5× SSC, 100 μg/ml denatured calf thymus DNA, 20 μg/ml homopoly(A) and 40 mM sodium phosphate, pH 6.8) containing 1.25×10^7 cpm of nick translated 2-1 plasmid described above. Nick-translated plasmid was denatured by boiling for 10 minutes followed by quick-cooling on ice. The filter was then hybridized overnight at 42° C. with occasional mixing.

[2] = tested on: tobacco T2 gene (T2 mRNA); assay: Northern analysis of T2 mRNA in roots of chemically treated tobacco; assay type: in vivo, N. tabacum (Petite Havana SRI); conditions: treated vs control plants
Excerpt: The procedures described for the isolation of the petunia cDNA clone P6.1 in Example 4 were repeated using N. tabacum (Petite Havana SRI) as the starting plant material. Differential screening of the resulting tobacco cDNA library prepared using poly(A)^+ RNA from the roots of N-(aminocarbonyl)-2-chlorobenzenesulfonamide-treated tobacco plants identified a cDNA clone representing an N-(aminocarbonyl)-2-chlorobenzenesulfonamide-inducible mRNA species. This clone was designated T2.
A Northern blot of total RNA from the roots of untreated and N-(aminocarbonyl)-2-chlorobenzenesulfonamide-treated tobacco plants was probed with nick-translated T2.1 to determine the size of the corresponding T2 mRNA. The methods used for these procedures were described in Example 4.

Question: With `NC(=O)NS(=O)(=O)c1ccccc1Cl` as the compound, how does the “hybridization of pIn 2-1 to root RNA (RNA slot blot)” value ([1]; hydroponic 0.2 g/liter, six hours, corn roots) read?
Answer: strongly hybridized

Question: And the In2-1 induction level ([1]; hydroponic application, 100 ppm)?
Answer: +++++

Question: And the “hybridization of pIn 2-1 to root poly(A)+ RNA (Northern blot)” value ([1]; hydroponic treatment, corn roots)?
Answer: single intense hybridization signal

Question: What about the “hybridization of T2.1 to root RNA (Northern blot)” value [2] of the same compound?
Answer: hybridized to an mRNA of 800 nt
